This note sets out measurements from patent US20260317319A1, “NOVEL ERGOLINES AND METHODS OF TREATING MOOD DISORDERS” (Gilgamesh Pharma Inc., priority 2023, published 2026).

Entries after “also recorded” stand apart in the source; their conditions may differ. Read-outs that look alike come from different tables or passages of the source. Some results are limits rather than exact numbers.

For one assay, the target named is T1, 5-HT2C receptor (Homo sapiens, UniProt P28335).
T1 sequence (P28335 33-458): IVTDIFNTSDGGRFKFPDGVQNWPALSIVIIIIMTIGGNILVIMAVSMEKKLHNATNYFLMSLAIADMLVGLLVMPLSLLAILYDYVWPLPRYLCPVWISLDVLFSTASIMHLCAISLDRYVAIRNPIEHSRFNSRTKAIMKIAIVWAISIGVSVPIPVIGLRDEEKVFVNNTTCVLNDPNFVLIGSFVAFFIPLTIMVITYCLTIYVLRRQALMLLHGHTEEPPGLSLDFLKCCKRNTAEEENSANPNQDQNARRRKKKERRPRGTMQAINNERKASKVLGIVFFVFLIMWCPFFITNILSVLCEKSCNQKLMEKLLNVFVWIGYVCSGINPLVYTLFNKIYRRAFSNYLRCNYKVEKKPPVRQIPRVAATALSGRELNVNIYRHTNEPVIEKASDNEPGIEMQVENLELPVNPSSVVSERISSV
Nature of the assay: cell-based. As to conditions: for Emax: read-out: 5-HT2C % Act @ Max Dose; for EC50: read-out: 5-HT2C EC50.

A further assay deals with C57BL/6 mice. In words: Mouse head twitch response (HTR) assay (observer-counted). In kind it is in vivo. The following applies: for efficacy in HTR assay: maximal effect. How it is done: Agonists of the 5-HT2A receptor are well known to induce this effect in rodents and the potency of this HTR is correlated with hallucinogenic potency in humans.
Animals. Adult male C57BL/6 mice, aged 6-8 weeks (body weight 20-25 g) were used in this experiment. Animals were housed under controlled temperatures and 12-hour light/dark cycles (lights on between 07:00-19:00 h), with ad libitum food and water. This study was carried out in strict accordance with the requirements of the Committee for the Purpose of Control and Supervision of Experiments on Animals (CPCSEA), India. All efforts were made to minimize suffering.
Procedure. Mice were administered one dose of the drug and immediately placed into a small open field for behavioral observation. Animals were observed continuously for 20 mins and the number of head twitches (HTs) were counted by an observer blind to the treatment condition.
Statistical Analysis. The data points shown are the mean±standard error of the mean (SEM). Analysis was performed using GraphPad Prism 6. Curves were fit using a non-linear gaussian distribution to calculate ED50 and Emax values.
Additional disclosed compounds were tested in the mouse head twitch response (HTR) assay according to the procedure described in Example 57 (administered SC). […] Lastly, compounds with much larger benzyl and phenethyl substituents on the amine nitrogen (e.g., 10 and 11) were low efficacy in this assay, consistent with their bias toward arrestin signaling (see Example 55).

For a further assay, the target named is T2, D1 dopamine receptor (Homo sapiens, UniProt P21728).
T2 construct: expressed in transfected cells
In words: Ca2+ flux functional assay at D1. In kind it is cell-based. The following applies: agonist, max dose, read-out: D1 % Act @ Max Dose. How it is done:
(§1) Disclosed compounds were tested for agonist activity at several adrenergic (Alpha1A and Alpha2A) and dopamine (D1 and D2) receptor subtypes using Ca^2+ flux functional assays, with the results summarized in Table 6. Selectivity for the 5-HT2A receptor over these other targets varied depending on the specific target and compound.
(§2) Functional Assays at Adrenergic and Dopamine Receptors. Agonist activity at Alpha1A, Alpha2A, D1, and D2 receptors was determined using a FLIPR Ca^2+ flux assay at WuXi AppTec (Hong Kong) Limited according to their standard protocols. Briefly, stably transfected cells expressing the receptor of interest were grown and plated in a 384 well plate and incubated at 37° C. and 5% CO2 overnight. A solution of 250 mM probenecid in 1 mL FLIPR assay buffer was prepared fresh. This was combined with a fluorescent dye (Fluo-4 Direct™) to make a final assay concentration of 2.5 mM. Compounds were diluted 1:3.16 for 10 points and 750 nL was added to a 384 well compound plate using ECHO along with 30 μL assay buffer. The fluorescent dye was then added to the assay plate along with assay buffer to a final volume of 40 μL. The cell plate was incubated for 50 min at 37° C. and 5% CO2 and placed into the FLIPR Tetra along with the compound plate. 10 μL of references and compounds were then transferred from the compound plate into the cell plate and the fluorescent signal was read.
In general terms: Calcium assays in cells follow changes in intracellular calcium, usually with a dye or a luminescent sensor.

Assay [1] addresses T3, Alpha1A adrenergic receptor (Homo sapiens, UniProt P35348).
T3 construct: expressed in transfected cells
T3 sequence (P35348 1-466): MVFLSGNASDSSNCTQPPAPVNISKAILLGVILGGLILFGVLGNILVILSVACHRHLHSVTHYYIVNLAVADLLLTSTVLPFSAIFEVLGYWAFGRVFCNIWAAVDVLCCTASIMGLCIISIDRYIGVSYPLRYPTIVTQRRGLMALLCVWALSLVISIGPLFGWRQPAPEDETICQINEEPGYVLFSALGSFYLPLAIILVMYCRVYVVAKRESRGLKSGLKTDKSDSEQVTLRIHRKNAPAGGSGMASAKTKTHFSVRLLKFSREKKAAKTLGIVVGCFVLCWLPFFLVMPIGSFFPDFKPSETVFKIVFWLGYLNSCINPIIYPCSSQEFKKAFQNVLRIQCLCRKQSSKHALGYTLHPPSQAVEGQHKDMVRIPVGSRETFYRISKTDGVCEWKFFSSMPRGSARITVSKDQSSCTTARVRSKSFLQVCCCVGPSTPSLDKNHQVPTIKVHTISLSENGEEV
In words: Ca2+ flux functional assay at Alpha1A. In kind it is cell-based. As to conditions: for maximal efficacy at Alpha1A: "higher" is compared to the N-methyl compound LSD; for Emax: agonist, Ca2+ flux, max dose, read-out: Alpha 1A % Act @ Max Dose. How it is done:
as §1, §2

[2] abbreviates: agonist, Ca2+ flux, Eurofins DiscoverX protocol, max dose.
Setting [3] is: agonist, Ca2+ flux, Eurofins DiscoverX protocol.
Setting [4] is: SC, most efficacious dose 3.2 mg/kg.

The term EC50 denotes the concentration at which the effect is half-maximal.

T2 sequence (P21728 whole entry): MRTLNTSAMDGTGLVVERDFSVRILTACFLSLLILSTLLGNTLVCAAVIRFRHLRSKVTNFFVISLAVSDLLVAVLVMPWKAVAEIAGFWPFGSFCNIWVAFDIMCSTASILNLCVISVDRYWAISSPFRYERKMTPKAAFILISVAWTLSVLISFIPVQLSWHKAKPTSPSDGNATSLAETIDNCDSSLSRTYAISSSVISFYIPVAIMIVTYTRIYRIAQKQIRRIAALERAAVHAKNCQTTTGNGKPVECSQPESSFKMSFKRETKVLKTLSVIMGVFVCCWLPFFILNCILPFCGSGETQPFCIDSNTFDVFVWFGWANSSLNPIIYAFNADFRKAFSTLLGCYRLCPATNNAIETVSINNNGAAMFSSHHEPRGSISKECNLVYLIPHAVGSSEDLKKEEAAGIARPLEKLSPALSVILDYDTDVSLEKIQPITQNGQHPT

With `CCN(CC)C(=O)[C@@H]1C=C2c3cccc4[nH]cc(c34)C[C@H]2N(Cc2ccc(OC)cc2)C1` [Compound 19, (6aR,9R)—N,N-diethyl-7-(4-methoxybenzyl)-4,6,6a,7,8,9-hexahydroindolo[4,3-fg]quinoline-9-carboxamide], the Emax on 5-HT2C receptor (setting [2]) came to 1.7%. Moreover, the EC50 on 5-HT2C receptor (setting [3]) was over 10 µM.
`CCCN1C[C@H](C(=O)NC(CC)CC)C=C2c3cccc4[nH]cc(c34)C[C@H]21` [Compound 6, (6aR,9R)—N-(pentan-3-yl)-7-propyl-4,6,6a,7,8,9-hexahydroindolo[4,3-fg]quinoline-9-carboxamide]: the “HTR at most efficacious dose (bound)” value with C57BL/6 mice (SC, 20 min) is recorded as over 15 HTR. For the same compound, the Emax at D1 dopamine receptor stood at 93.1%; at 5-HT2C receptor (setting [2]), 117%. The “maximal efficacy at Alpha1A” value in assay [1] is “substantially higher maximal efficacy”.
`CCN(CC)C(=O)[C@@H]1C=C2c3cccc4[nH]cc(c34)C[C@H]2N(Cc2ccccc2OC)C1` [Compound 10, (6aR,9R)—N,N-diethyl-7-(2-methoxybenzyl)-4,6,6a,7,8,9-hexahydroindolo[4,3-fg]quinoline-9-carboxamide]: the “efficacy in HTR assay” value in the assay with C57BL/6 mice (SC) is “low efficacy”. Further, the “# HTR/20 min at Most Efficacious Dose” value in the assay with C57BL/6 mice (setting [4]) was found to be 6.5 HTR/20 min. For the same compound, the Emax at D1 dopamine receptor turned out to be 114%; at 5-HT2C receptor (setting [2]), 13.4%; in assay [1], 26.6%. The “maximal efficacy at Alpha1A” value in assay [1] was “very low efficacy agonists”.
Turning to `CC[C@@H](C)NC(=O)[C@@H]1C=C2c3cccc4[nH]cc(c34)C[C@H]2N(C)C1` [Int8], the “HTR at most efficacious dose (bound)” value with C57BL/6 mice (SC, 20 min) is recorded as under 15 HTR. The Emax at 5-HT2C receptor was 98.2%.
Turning to `CCN(CC)C(=O)[C@@H]1C=C2c3cccc4[nH]cc(c34)C[C@H]2N(CCCF)C1` [Compound 2, (6aR,9R)—N,N-diethyl-7-(3-fluoropropyl)-4,6,6a,7,8,9-hexahydroindolo[4,3-fg]quinoline-9-carboxamide], the “HTR at most efficacious dose (bound)” value in the assay on C57BL/6 mice (SC, 20 min) was over 15 HTR. Besides, the Emax was found to be 114% on D1 dopamine receptor, 105% at 5-HT2C receptor (setting [2]) and 110% in assay [1]. Also, in assay [1], the “maximal efficacy at Alpha1A” value was “substantially higher maximal efficacy”.
As for `C=CCN1C[C@H](C(=O)N[C@H](C)CC)C=C2c3cccc4[nH]cc(c34)C[C@H]21` [Compound 8, (6aR,9R)-7-allyl-N—((R)-sec-butyl)-4,6,6a,7,8,9-hexahydroindolo[4,3-fg]quinoline-9-carboxamide], the “HTR at most efficacious dose (bound)” value in the assay with C57BL/6 mice (SC, 20 min) is listed as over 15 HTR. The Emax at 5-HT2C receptor (setting [2]) was 108%.
Regarding `CCCN1C[C@H](C(=O)N2[C@@H](C)C[C@@H]2C)C=C2c3cccc4[nH]cc(c34)C[C@H]21` [Compound 4, ((2S,4S)-2,4-dimethylazetidin-1-yl)((6aR,9R)-7-propyl-4,6,6a,7,8,9-hexahydroindolo[4,3-fg]quinolin-9-yl)methanone], the “efficacy in HTR assay” value in the assay with C57BL/6 mice (SC) is reported as “less efficacious than its N-methyl counterpart compound Int11; also recorded: lower efficacy than analogous compounds bearing other amide substituents”. In addition, the Emax at D1 dopamine receptor is 114%; on 5-HT2C receptor (setting [2]), 111%; in assay [1] it was 119%. Also, the “maximal efficacy at Alpha1A” value in assay [1] is “substantially higher maximal efficacy”.
`CCCN1C[C@H](C(=O)N(CC)CC)C=C2c3cccc4[nH]cc(c34)C[C@H]21` [Compound 1, (6aR,9R)—N,N-diethyl-7-propyl-4,6,6a,7,8,9-hexahydroindolo[4,3-fg]quinoline-9-carboxamide]: in the assay on C57BL/6 mice (20 min observation, FIG. 1), the “head twitch response” value was “robust and dose-dependent HTR”. For the same compound, in the assay on C57BL/6 mice (SC, 20 min), the “HTR at most efficacious dose (bound)” value is reported as over 15 HTR. The Emax at D1 dopamine receptor came out at 109%; on 5-HT2C receptor (setting [2]), 107%; in assay [1], 80.6%. For the same compound, the “maximal efficacy at Alpha1A” value in assay [1] is “substantially higher maximal efficacy”.
In the case of `CCN(CC)C(=O)[C@@H]1C=C2c3cccc4[nH]cc(c34)C[C@H]2N(Cc2cccc(OC)c2)C1` [Compound 18, (6aR,9R)—N,N-diethyl-7-(3-methoxybenzyl)-4,6,6a,7,8,9-hexahydroindolo[4,3-fg]quinoline-9-carboxamide], on 5-HT2C receptor (setting [2]), the Emax was found to be 7.28%. The 50% effective concentration (EC50) on 5-HT2C receptor (setting [3]) was over 10 µM.
Turning to `CCCN1C[C@H](C(=O)N[C@H](C)CC)C=C2c3cccc4[nH]cc(c34)C[C@H]21` [Compound 3, (6aR,9R)—N—((R)-sec-butyl)-7-propyl-4,6,6a,7,8,9-hexahydroindolo[4,3-fg]quinoline-9-carboxamide], the “HTR at most efficacious dose (bound)” value in the assay with C57BL/6 mice (SC, 20 min) is over 15 HTR. Further, the “# HTR/20 min at Most Efficacious Dose” value in the assay on C57BL/6 mice (SC, most efficacious dose 0.32 mg/kg) was found to be 27.0 HTR/20 min. The results for the Emax (on D1 dopamine receptor; on 5-HT2C receptor (setting [2]); in assay [1]) were 121%, 119% and 125%, respectively. For the same compound, in assay [1], the “maximal efficacy at Alpha1A” value is on record as “substantially higher maximal efficacy”.
`CCN(CC)C(=O)[C@@H]1C=C2c3cccc4[nH]cc(c34)C[C@H]2N(CCc2ccccc2OC)C1` [Compound 11, (6aR,9R)—N,N-diethyl-7-(2-methoxyphenethyl)-4,6,6,7,8,9-hexahydroindolo[4,3-fg]quinoline-9-carboxamide]: the “ED50 (HTR)” value in the assay with C57BL/6 mice (SC, 20 min, curve fit poor in some cases) is recorded as 2.205 mg/kg. For the same compound, the “Emax, HTR/20 min” value with C57BL/6 mice (SC, curve fit poor in some cases) amounted to 19.79 HTR/20 min. For the same compound, the “efficacy in HTR assay” value with C57BL/6 mice (SC) is reported as “low efficacy”. Further, the “# HTR/20 min at Most Efficacious Dose” value in the assay on C57BL/6 mice (setting [4]) was 12.0 HTR/20 min. In addition, in assay [1], the “maximal efficacy at Alpha1A” value is listed as “very low efficacy agonists”.
For the compound `CCN(CC)C(=O)[C@@H]1C=C2c3cccc4[nH]cc(c34)C[C@H]2N(C)C1` [LSD, lysergic acid diethylamide, reference compound], the Emax is 94.9% at D1 dopamine receptor and 60.3% in assay [1].
